For test [1], the system named is C4-2B. In words: Cytotoxic activity test (MTT) on C4-2B prostate cancer cells. Format: cell-based, human. The following applies: C4-2B cells. Here is the method: (§1) All prostate cancer cells were cultured with a RPMI-1640 medium containing 10% calf serum, 100 units of penicillin per milliliter and 100 µg/mL of streptomycin in a constant temperature incubator containing 5% carbon dioxide at a saturated humidity of 37° C.
(§2) Cells in the logarithmic phase of growth were taken and cultured in 96-well plates for 24 hours (5×10^3 cells/well), then treated with different concentrations of the compounds to be tested, and incubated by MTT method for 4 hours. The supernatant was removed by centrifugation, the MTT crystals were dissolved by adding DMSO, and the absorbance value was measured by an enzyme-linked immunosorbent assay at a wavelength of 570 nm. The cytotoxic activity of the compounds to be tested on cancer cells was expressed as IC50.

The subject of test [2] is C4-2B/ENZR. In words: Cytotoxic activity test (MTT) on C4-2B/ENZR prostate cancer cells. Format: cell-based, human. The following applies: C4-2B/ENZR cells. Here is the method:
as §1, §2

Test [3] has as its system Vcap-CRPC. Description: Cytotoxic activity test (MTT) on Vcap-CRPC prostate cancer cells. Conditions: Vcap-CRPC cells, MTT, read-out: Prostate cancer cells IC50 Vcap-CRPC. In kind it is cell-based, human. Here is the method: as §1, §2
The subject of test [4] is 22RV1. Description: Cytotoxic activity test (MTT) on 22RV1 prostate cancer cells. Format: cell-based, human. Conditions: 22RV1 cells, MTT, read-out: Prostate cancer cells IC50 22RV1. Here is the method:
as §1, §2

Test [5] relates to RWPE-1. In words: Cytotoxic activity test (MTT) on normal human prostate cell RWPE-1. In kind it is cell-based. As for the experimental part:
as §1, §2

Test [6] relates to LNcap. Description: Cytotoxic activity test (MTT) on LNcap prostate cancer cells. Conditions: LNcap cells, MTT, read-out: Prostate cancer cells IC50 LNcap. In kind it is cell-based, human. As for the experimental part:
as §1, §2

Test [7] concerns prostate cancer cells. Description: Inhibitory activity on a variety of prostate cancer cells (Table 1). In kind it is cell-based, human. The following applies: structure-activity statements on Table 1. As for the experimental part:
as §1, §2

The mark [8] stands for this setting: normal human prostate cell RWPE-1, MTT, read-out: Normal cells RWPE-1 (IC50).
[9] abbreviates: Homo sapiens, RWPE-1, read-out: Normal cells RWPE-1 (IC50).

Molecules are shown by their SMILES. “Also recorded” adds a separate entry of the source. Read-outs that look alike come from different tables or passages of the source.

Take `COc1cccc2c1C(=O)c1c(O)c3c(c(O)c1C2=O)C[C@@](O)(C(=O)CO)C[C@@H]3O[C@H]1C[C@H](N)[C@H](O)[C@H](C)O1` [DOX, doxorubicin, reference compound]: the IC50 in test [1] (Homo sapiens) is 1.04 nM; in test [2] (Homo sapiens), 2.87 nM; in test [3] (Homo sapiens), 12.4 nM; in test [4] (Homo sapiens), 5.99 nM; in test [5] (setting [8]), 33.3 nM.

Turning to `C=C(C)[C@@]12OC3(c4ccccc4)O[C@@H]1[C@@H]1[C@@H]4O[C@]4(CO)[C@@H](O)[C@]4(O)C(=O)C(C)=C[C@H]4[C@@]1(O3)[C@H](C)[C@H]2OC(=O)CCC` [YH-1], the IC50 was found to be 5.74 nM in test [4] and 43500 nM in test [5] (setting [8]).

For `C=C(C)[C@@]12OC3(c4ccccc4)O[C@@H]1[C@@H]1[C@@H]4O[C@]4(CO)[C@@H](O)[C@]4(O)C(=O)C(C)=C[C@H]4[C@@]1(O3)[C@H](C)[C@H]2OC(=O)C(C)C` [YH-2], the results for the concentration for half-maximal inhibition (IC50) in test [4] and in test [5] (setting [8]) were 26.5 nM and 40300 nM, respectively.

`C=C(C)[C@@]12OC3(c4ccccc4)O[C@@H]1[C@@H]1[C@@H]4O[C@]4(CO)[C@@H](O)[C@]4(O)C(=O)C(C)=C[C@H]4[C@@]1(O3)[C@H](C)[C@H]2OC(=O)CC` [YH-3]: the IC50 in test [1] was found to be 8.95 nM; in test [6], 3.77 nM; in test [3] it was 1.74 nM; in test [4] it was 434 nM; in test [5] (setting [8]) it was 57200 nM.

For `C=C(C)[C@@]12OC3(c4ccccc4)O[C@@H]1[C@@H]1[C@@H]4O[C@]4(CO)[C@@H](O)[C@]4(O)C(=O)C(C)=C[C@H]4[C@@]1(O3)[C@H](C)[C@H]2OC(C)=O` [YH-6], the IC50 in test [1] (Homo sapiens) came to 0.367 nM; in test [2] (Homo sapiens), 2.34 nM; in test [6] (Homo sapiens), 3.89 nM; in test [3] (Homo sapiens), 21.2 nM; in test [4] (Homo sapiens) it was 52.5 nM; in test [5] (setting [8]) it was 44200 nM.

Consider `C=C(C)[C@@]12OC3(c4ccccc4)O[C@@H]1[C@@H]1[C@@H]4O[C@]4(CO)[C@@H](O)[C@]4(O)C(=O)C(C)=C[C@H]4[C@@]1(O3)[C@H](C)[C@H]2OC(=O)c1ccccc1` [YH-11], for which the concentration for half-maximal inhibition (IC50) in test [5] (setting [8]) is 13400 nM. The “inhibitory activity on prostate cancer cells (in words)” value in test [7] is “most prominent”.

In the case of `C=C(C)[C@@]12OC3(c4ccccc4)O[C@@H]1[C@@H]1[C@@H]4O[C@]4(COC(C)=O)[C@@H](O)[C@]4(O)C(=O)C(C)=C[C@H]4[C@@]1(O3)[C@H](C)[C@H]2OC(=O)c1ccccc1` [YH-13], the IC50 was determined as 6.79 nM in test [2] (Homo sapiens); 4.53 nM in test [6] (Homo sapiens); 67.2 nM in test [3] (Homo sapiens); 83.2 nM in test [4] (Homo sapiens); 35700 nM in test [5] (setting [8]).

Consider `C=C(C)[C@@]12OC3(/C=C/C=C/CCCCC)O[C@@H]1[C@@H]1[C@@H]4O[C@]4(CO)[C@@H](O)[C@]4(O)C(=O)C(C)=C[C@H]4[C@@]1(O3)[C@H](C)[C@H]2OC(C)=O` [YH-22], for which, in test [5] (setting [9]), the IC50 is 5890 nM. Besides, in test [7], the “inhibitory activity on prostate cancer cells (in words)” value is listed as “most prominent; also recorded: more cytotoxic”.

For the compound `C=C(C)[C@@]12OC3(/C=C/C=C/CCCCC)O[C@@H]1[C@@H]1[C@@H]4O[C@]4(COC(C)=O)[C@@H](O)[C@]4(O)C(=O)C(C)=C[C@H]4[C@@]1(O3)[C@H](C)[C@H]2OC(C)=O` [YH-24], the concentration for half-maximal inhibition (IC50) in test [2] turned out to be 67.3 nM; in test [6], 48.2 nM; in test [3], 76.2 nM; in test [4], 45.8 nM; in test [5] (setting [8]) it was 21900 nM.

As for `C=C(C)C12OC3(c4ccccc4)OC1C1C4OC4(CO)C(O)C4(O)C(=O)C(C)CC4C1(O3)C(C)C2OC(C)=O` (centres unmarked) [YH-35], the 50% inhibitory concentration (IC50) was 0.426 nM in test [1]; 1.92 nM in test [2]; 4.82 nM in test [6]; 64.2 nM in test [3]; 144 nM in test [4]; 42900 nM in test [5] (setting [8]).

For `C=C(C)C12OC3(c4ccccc4)OC1C1C4OC4(CO)C(O)C4(O)C(=O)C(C)CC4C1(O3)C(C)C2OC(=O)c1ccccc1` (centres unmarked) [YH-36], the IC50 came to 42.5 nM in test [4] and 14600 nM in test [5] (setting [8]).

Turning to `CCCCCCCCCC12O[C@@H]3[C@@H]4[C@@H]5O[C@]5(CO)[C@@H](O)[C@]5(O)C(=O)C(C)=C[C@H]5[C@@]4(O1)[C@H](C)[C@@H](OC(C)=O)[C@]3(C(C)C)O2` [YH-37], the 50% inhibitory concentration (IC50) in test [5] (setting [8]) was 10300 nM.

Regarding `CCCCCCCCCC12O[C@@H]3[C@@H]4[C@@H]5O[C@]5(CO)[C@@H](O)[C@]5(O)C(=O)[C@@H](C)C[C@H]5[C@@]4(O1)[C@H](C)[C@@H](OC(C)=O)[C@]3(C(C)C)O2` [YH-38], the IC50 in test [4] (Homo sapiens) was 5.42 nM; in test [5] (setting [8]), 20600 nM.

As for `CC(C)[C@@]12OC3(c4ccccc4)O[C@@H]1[C@@H]1[C@@H]4O[C@]4(CO)[C@@H](O)[C@]4(O)C(=O)[C@@H](C)C[C@H]4[C@@]1(O3)[C@H](C)[C@H]2OC(=O)c1ccccc1` [YH-39], the values for the half-inhibitory concentration (IC50) in test [4] (Homo sapiens) and in test [5] (setting [8]) were 6.73 nM and 18500 nM, respectively.

As for `CC1=C[C@@H]2[C@@](O)(C1=O)[C@H](O)[C@@]1(CO)O[C@H]1[C@H]1[C@H]3OC4(c5ccccc5)O[C@@]3(C(C)C)[C@H](OC(=O)c3ccccc3)[C@@H](C)[C@@]12O4` [YH-40], the IC50 in test [5] (setting [8]) was 20300 nM.

`C=C(C)[C@@]12OC3(C)O[C@@H]1[C@@H]1C=C(CO)C[C@]4(O)C(=O)C(C)=C[C@H]4[C@@]1(O3)[C@H](C)[C@H]2OC(=O)c1ccccc1` [YH-44]: the concentration for half-maximal inhibition (IC50) in test [1] came to 193 nM; in test [2], 641 nM; in test [6], 74.8 nM; in test [3] it was 306 nM; in test [4], 4650 nM; in test [5] (setting [8]) it was 17400 nM.

In the case of `C=C(C)[C@@]12OC3(c4ccccc4)O[C@@H]1[C@@H]1[C@@H](Br)[C@@](O)(CO)[C@@H](O)[C@]4(O)C(=O)C(C)=C[C@H]4[C@@]1(O3)[C@H](C)[C@H]2OC(=O)c1ccccc1` [YH-53], the concentration for half-maximal inhibition (IC50) in test [5] (setting [9]) is 56300 nM.

On to `C=C(C)C1(O)C(OC(=O)c2ccccc2)C(C)C2(O)C(C(O)C(O)(CO)C(O)C3(O)C(=O)C(C)=CC32)C1OC(=O)c1ccccc1` (centres unmarked) [YH-56], for which the IC50 was 4470 nM in test [1]; 2690 nM in test [2]; 13100 nM in test [6]; 15400 nM in test [3]; 47100 nM in test [4]; 35100 nM in test [5] (setting [8]).

As for `C=C(C)C1(O)C(O)C2C3OC3(CO)C(O)C3(O)C(=O)C(C)=CC3C2(O)C(C)C1OC(=O)c1ccccc1` (centres unmarked) [YH-57], the 50% inhibitory concentration (IC50) in test [1] stood at 2320 nM; in test [2] it was 1870 nM; in test [6], 4820 nM; in test [3], 40800 nM; in test [4], 46700 nM; in test [5] (setting [8]), 41100 nM.

As to `C=C(C)C1(O)C(O)C2C3OC3(CO)C(O)C3(O)C(=O)C(C)=CC3C2(O)C(C)C1OC(C)=O` (centres unmarked) [YH-58], the IC50 in test [1] is 33600 nM; in test [2] it was 40200 nM.

In the case of `C=C(C)[C@@]1(O)[C@H](OC(=O)c2ccccc2)[C@@H]2[C@@H]3O[C@]3(CO)[C@@H](O)[C@]3(O)C(=O)C(C)=CC3[C@@]2(O)[C@H](C)[C@H]1OC(=O)c1ccccc1` (some centres unmarked) [YH-60], the IC50 is 49.4 nM in test [1] (Homo sapiens); 73.9 nM in test [2] (Homo sapiens); 2.85 nM in test [6] (Homo sapiens); 911 nM in test [3] (Homo sapiens); 3890 nM in test [4] (Homo sapiens); 4810 nM in test [5] (setting [8]).

Regarding `C=C(C)C1(O)C(O)C(C)C2(O)C(C3OC3(CO)C(O)C3(O)C(=O)C(C)=CC32)C1OC(=O)C=CC=CCCCCC` (centres unmarked) [YH-61], the 50% inhibitory concentration (IC50) in test [1] is 189 nM; in test [2] it was 543 nM.

What is called IC50 is the concentration needed to halve the response being measured.
